Results published in article PMC10604444, “Extra-Synaptic GABAA Receptor Potentiation and Neurosteroid-Induced Learning Deficits Are Inhibited by GR3027, a GABAA Modulating Steroid Antagonist” (Biomolecules, 2023).
Where two headings read alike, the source gives them in different places.

Key:
[1] = target: T1, human α5β3γ2L GABAA receptors expressed in HEK-293 cells (Homo sapiens, UniProt P28472+P31644); assay: Whole-cell patch clamp of GABA/THDOC-evoked currents, extra-synaptic protocol (Dynaflow); format: cell-based; conditions: for Current with GR3027 alone: baseline holding current +2.15 ± 1.4 pA, n = 9, not significant
T1 construct: The coding regions of the human GABAA receptor subunits were then amplified by PCR; expressed in transfected cells; host or cells: HEK-293 (permanently transfected, pcDNA3.1 vectors, CMV promoter)
Description: Wild-type HEK-293 cells (passage 4, originating from Pasteur Institute, Paris, France) were permanently transfected with vectors including the human CMV promoter for the constitutive expression of the human α5, β3, and γ2L GABAA receptor subunits (α5β3γ2L) or the human α1, β2, and γ2L GABAA receptor subunits (α1β2γ2L). The production of the plasmids used in the sub-cloning of the different subunits is published in Rahman et al..
The electrophysiological recordings from HEK-293 cells were performed with the whole-cell voltage clamp technique, at room temperature (21–23 °C). After compensation for liquid junction potential, a steady holding potential of −17 mV was used in all experiments. Patch pipettes were pulled from borosilicate glass (Bergman Labora AB, Danderyd, Sweden) and polished to a resistance of 2–5 MΩ when filled with intracellular solution and immersed in a bath (extracellular) solution (for solutions, see below). The pipette tips were filled by immersion in standard intracellular solution and subsequent back-filling with intracellular solution. The recordings were made using an Axopatch 200B amplifier and a Digidata 1322A (Axon Instruments, Foster City, CA, USA) controlled via a Pentium processor-based personal computer. Data were acquired using the pCLAMP software sampled at 10 kHz, filtered at 2–10 kHz, and analyzed with Clampfit (versions 9.0, both from Axon Instruments, Foster City, CA, USA). A series resistance between the pipette and cell membrane not higher than 20 MΩ was accepted. No series resistance compensation was used. The stability of series resistance was monitored repeatedly from the time course of capacitative transients during the experiments. The measured liquid junction potential between extracellular and intracellular solutions was subtracted from all data presented, as previously described. All experiments were performed at room temperature (21–23 °C).
In all electrophysiological experiments, tetrahydro-deoxycorticosterone (THDOC) was used as a positive GABAA receptor steroid modulator (PAM) to mimic the effect of AP on central GABAA channels. […] THDOC (Sigma Chemical Co., St. Louis, MO, USA) and GR3027 (3α-ethynyl, 3β-hydroxyl, 5α-androstan-17-oxime, golexanolone, Umecrine Cognition AB, Stockholm, Sweden) were dissolved in dimethyl sulfoxide (DMSO) using ultrasound, for the preparation of solutions containing a final DMSO concentration of 0.1%. GR3027 was discovered within a series of molecules developed and patented by T. Bäckström and G. Ragagnin, (patent WO 2008/063128). All solutions were complemented with DMSO to achieve the same final concentration as in the steroid-containing test solution. GABA (Sigma Chemical Co., St. Louis, MO, USA) was first prepared as a stock solution (dissolved in EC with ultrasonic treatment) to the desired concentrations, with the corresponding final concentrations of test solutions (30 µM and 0.3 µM; see protocols below). GABA was added to the experimental solution without a change in osmolarity.
The experimental protocols were designed to mimic the physiological conditions of the tonic (extra-synaptic) and phasic (synaptic) activation of GABAA receptors observed in central neurons, depending on the subunit compositions, respectively. GABA-evoked currents in HEK-293 cells expressing extra-synaptic (α5β3γ2L) or synaptic (α1β2γ2L) types of GABAA receptors were studied using the conventional whole-cell patch clamp technique. To mimic the physiological GABA exposure, the HEK-293 cells expressing α1β2γ2L GABAA receptors were exposed to short applications (40 ms) of 30 µM GABA, whereas HEK-293 cells expressing α5β3γ2L GABAA receptors were exposed to prolonged applications (6 s) of 0.3 µM GABA, either in the absence or presence of THDOC and/or GR3027.

[2] = test system: male Wistar rats; assay: AP-induced loss of righting reflex (LoR); format: in vivo, rat
Description: Nanomolar concentrations of AP injected intravenously dramatically potentiate the GABA response at the GABAA receptor [1, 20]. […] Under normal circumstances, the righting reflex immediately corrects the orientation of the body when it is outside of its normal upright position, such as that of a rat that is placed on its side. When the rat is awake, it immediately turns around to be standing on its paws when dropped from a low distance above a surface. This ability can be lost with the injection of AP. Twelve male Wistar rats, with a weight of 267–307 g at the test occasion, were included in the study (Taconics, Denmark). The rats were housed at three animals per cage, with a normal day/night light cycle and ad libitum access to food and water (except during the short experiment, approximately 10 min). The week before the study, the animals were handled daily, to avoid stress during the experimental session. The handling included activities used during the test, i.e., holding, tail warming in water, and wrapping in op-blankets. AP (Umecrine AB) and GR3027 (Umecrine Cognition AB) were dissolved at a concentration of 2 mg/mL in 10% 2-hydroxypropyl-β-cyclodextrin (Sigma), respectively, by sonication. To measure the antagonism of AP-induced LoR, GR3027 was mixed with the AP solution at different ratios of AP to GR3027 1: 2.5–1:7.5. […]

[3] = test system: patients with hepatic encephalopathy; design: method as in PMID 33894327; conditions: humans; cited from earlier work

T1 sequence (P31644 32-462): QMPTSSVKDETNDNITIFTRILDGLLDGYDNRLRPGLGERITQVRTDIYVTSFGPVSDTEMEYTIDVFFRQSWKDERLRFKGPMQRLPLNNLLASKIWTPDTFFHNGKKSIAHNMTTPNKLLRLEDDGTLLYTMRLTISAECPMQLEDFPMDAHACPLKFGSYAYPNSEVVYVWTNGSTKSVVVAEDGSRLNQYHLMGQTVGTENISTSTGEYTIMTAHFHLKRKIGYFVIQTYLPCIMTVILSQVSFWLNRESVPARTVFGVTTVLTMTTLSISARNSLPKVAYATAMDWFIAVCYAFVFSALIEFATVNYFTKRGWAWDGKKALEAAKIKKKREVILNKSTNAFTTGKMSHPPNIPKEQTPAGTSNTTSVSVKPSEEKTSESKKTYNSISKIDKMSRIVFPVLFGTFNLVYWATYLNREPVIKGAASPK
T1 sequence (P28472 26-473 isoform P28472-2 limits assumed): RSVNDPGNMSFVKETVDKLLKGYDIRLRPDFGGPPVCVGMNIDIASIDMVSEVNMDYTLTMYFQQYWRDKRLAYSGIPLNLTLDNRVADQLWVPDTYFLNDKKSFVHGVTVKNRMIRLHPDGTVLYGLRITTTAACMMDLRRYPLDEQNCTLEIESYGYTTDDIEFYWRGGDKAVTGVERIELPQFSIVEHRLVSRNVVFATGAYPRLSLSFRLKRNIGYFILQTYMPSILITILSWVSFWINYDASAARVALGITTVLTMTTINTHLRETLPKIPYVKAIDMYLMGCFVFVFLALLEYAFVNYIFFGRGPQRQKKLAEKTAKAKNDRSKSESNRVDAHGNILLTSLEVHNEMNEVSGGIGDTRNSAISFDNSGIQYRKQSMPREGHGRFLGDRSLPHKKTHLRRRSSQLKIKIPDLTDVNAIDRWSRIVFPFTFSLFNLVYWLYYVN
T1 sequence (P18507 40-475 partner): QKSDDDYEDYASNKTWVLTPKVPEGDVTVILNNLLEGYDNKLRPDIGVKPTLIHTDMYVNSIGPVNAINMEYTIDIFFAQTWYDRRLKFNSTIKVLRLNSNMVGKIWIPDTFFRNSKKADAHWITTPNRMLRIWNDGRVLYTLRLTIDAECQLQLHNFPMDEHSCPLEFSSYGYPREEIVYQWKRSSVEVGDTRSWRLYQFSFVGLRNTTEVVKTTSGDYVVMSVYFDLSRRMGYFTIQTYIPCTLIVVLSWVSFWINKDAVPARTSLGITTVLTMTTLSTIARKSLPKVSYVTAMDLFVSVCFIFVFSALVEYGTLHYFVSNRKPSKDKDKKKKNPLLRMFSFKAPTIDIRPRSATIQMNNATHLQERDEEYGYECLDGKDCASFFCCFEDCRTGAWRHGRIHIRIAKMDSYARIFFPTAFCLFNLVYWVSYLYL

SMILES: C#C[C@]1(O)CC[C@@]2(C)[C@@H](CC[C@@H]3[C@@H]2CC[C@]2(C)/C(=N/O)CC[C@@H]32)C1 [GR3027, 3α-ethynyl-3β-hydroxyl-5α-androstan-17-oxime]
- IC50 [1]: 344 nM
- Imax for decrease of AUC of THDOC-potentiated GABA-mediated response ([1]; 200 nM THDOC + 0.3 µM GABA): −35%
- Imax for decrease of peak current amplitude of THDOC-potentiated GABA-mediated response ([1]; 200 nM THDOC + 0.3 µM GABA): −37%
- Imax for reduction of THDOC-mediated outward current shift ([1]; 200 nM THDOC, absence of GABA): −33%
- Mean change of peak current amplitude of GABA-mediated response ([1]; 1 µM GR3027 + 0.3 µM GABA, absence of THDOC, SEM 0.9, p = 0.02, n = 7): −7.0%
- Mean change of AUC of GABA-mediated response ([1]; 1 µM GR3027 + 0.3 µM GABA, absence of THDOC, SEM 1.5, NS, n = 7): −3.8%
- Effect on THDOC-induced current response (absence of GABA) ([1]; 1 µM GR3027, 1 µM THDOC): significantly reduced
- Effect on baseline holding current ([1]; 1 µM GR3027, absence of THDOC): did not change the baseline holding current
- Current with GR3027 alone ([1]; 1 µM GR3027, no GABA or THDOC): +1.6 ± 1.4 pA
- Current with GR3027 alone ([1]; 3 µM GR3027, no GABA or THDOC): +0.73 ± 0.4 pA
- Effect on THDOC-induced current response (absence of GABA) ([1]; 3 µM GR3027, 0.1, 0.3, 0.6 and 1 µM THDOC): significantly reduced
- IC50 ([1]; IC50 for decrease of AUC of THDOC-potentiated GABA-mediated response, 200 nM THDOC + 0.3 µM GABA, n = 4-14): 341 nM
- IC50 ([1]; IC50 for decrease of peak current amplitude of THDOC-potentiated GABA-mediated response, 200 nM THDOC + 0.3 µM GABA, n = 4-14): 563 nM
- Dosage of GR3027 that antagonizes AP-induced loss of righting reflex ([2]; AP 2 mg/kg i.v., in 10% 2-hydroxypropyl-β-cyclodextrin): 15 mg/kg
- Effect on general condition of the rat ([2]; GR3027 15 mg/kg): did not affect the general condition
- Effect in patients with hepatic encephalopathy [3]: improves EEG, vigilance, and cognition
